# Reference: article PMC9100673, “Acridine Based N-Acylhydrazone Derivatives as Potential Anticancer Agents: Synthesis, Characterization and ctDNA/HSA Spectroscopic Binding Properties” (Molecules, 2022)
# pIC50: −log10 of the molar value.
# Legend:
# [1] = biological target: T1, hTopo I (Homo sapiens, UniProt P11387); test: Topo I DNA relaxation assay; assay type: biochemical; settings: 25, 50 and 100 μM; pBR322
# T1 sequence (P11387 1-765): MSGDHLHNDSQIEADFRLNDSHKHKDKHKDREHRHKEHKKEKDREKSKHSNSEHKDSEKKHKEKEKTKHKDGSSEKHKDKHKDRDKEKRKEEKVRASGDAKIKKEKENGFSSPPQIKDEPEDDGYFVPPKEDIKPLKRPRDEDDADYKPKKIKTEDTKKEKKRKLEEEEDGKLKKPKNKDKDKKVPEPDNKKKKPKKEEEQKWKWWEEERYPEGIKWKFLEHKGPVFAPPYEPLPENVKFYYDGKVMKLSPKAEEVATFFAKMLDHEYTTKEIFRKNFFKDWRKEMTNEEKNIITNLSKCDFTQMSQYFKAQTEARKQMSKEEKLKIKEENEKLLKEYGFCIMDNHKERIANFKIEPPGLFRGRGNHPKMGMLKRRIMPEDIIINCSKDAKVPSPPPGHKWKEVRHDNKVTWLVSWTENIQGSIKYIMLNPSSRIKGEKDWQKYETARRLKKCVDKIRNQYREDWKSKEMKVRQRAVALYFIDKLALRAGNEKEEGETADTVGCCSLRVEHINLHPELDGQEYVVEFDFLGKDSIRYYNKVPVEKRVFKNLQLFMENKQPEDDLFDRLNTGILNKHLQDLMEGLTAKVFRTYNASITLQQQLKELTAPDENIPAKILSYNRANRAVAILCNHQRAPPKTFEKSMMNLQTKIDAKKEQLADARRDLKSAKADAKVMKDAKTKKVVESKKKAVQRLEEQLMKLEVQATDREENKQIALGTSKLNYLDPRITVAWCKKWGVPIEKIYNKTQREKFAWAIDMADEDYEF
# From the text: Topo I enzymes convert the supercoiled (SC) form DNA to relaxed (R) form and nicked-open-circular (NOC) DNA. The NOC form is circular dsDNA with one nicked strength; Topo I nicked only one strength. SC form DNA migrate the fastest in gel, NOC migrates the slowest, and the migration speed of R DNA is in the middle of these two forms. In an electrophoretogram with active Topo I enzymes, SC DNA is not observed, but R and NOC DNA forms can be seen. In the case of Topo I inhibition, bends for R and NOC DNA forms are not observed. The results electrophoretogram effect of derivatives 3a–3d on activity topoisomerase I show Figure 12A.
# (§1) Figure 12 The result of Topo I/IIα activity tests in the presence of derivatives 3a–3d. (A) Electrophoretogram for inhibition relaxation activity of hTopo I (2.5 U) by derivatives 3a–3d in concentrations of 25, 50 and 100 μM (lane 5–16), substrate-free SC pBR322 (0.5 μg) (lane 4), camptothecin (CPT, lane 2) and plasmid+hTopo I control (lane 3). (NOC—nicked-opened DNA form; R—relaxed DNA form; SC—supercoiled DNA form). (B) Electrophoretogram for inhibition decatenation activity of hTopo IIα (0.5 U) by derivatives 3a–3d in concentrations of 25, 50 and 100 μM (lane 5–16), substrate-free catenated kinetoplast DNA (cat kDNA) (0.5 μg) (lane 4), m-Amsacrine (AMSA, lane 2) and plasmid +hTopo IIα control (lane 3). (decat DNA—decatenated DNA; NC—nicked circular DNA form; L—linear DNA form).
# [2] = test system: CCD-18Co cells; test: MTT assay, metabolic activity of CCD-18Co fibroblasts; assay type: cell-based, human; settings: 48 h; for pIC50: Homo sapiens, CCD-18Co
# Description: The effect of acridine-benzohydrazides (3a–3d) on the metabolic activity of the lung adenocarcinoma cell line (A549) and the normal colon fibroblast cell line (CCD-18Co) was evaluated using a 3-(4,5-dimethylthiazol-2-yl)-2,5-diphenyltertrazolium bromide (MTT) cell assay. This assay is based on the metabolization of yellow MTT to purple formazan crystal by mitochondrial dehydrogenases, and therefore only metabolic active cells are capable of that reaction. The CCD-18Co cell line was used as a control to check for derivatives selectivity. The doxorubicin belongs to a group of anthracyclines, which represent the chemotherapeutic regiments for the treatment of NSCLC (non-small cell lung carcinoma) even today, and acts as antineoplastic mainly by interaction with the DNA topoisomerase II and by creating DNA single- and double-strand breaks. Previous studies described detailed cytotoxic effects of doxorubicin in the human lung adenocarcinoma A549 cell line. Doxorubicin resembles our compounds in its biological action; therefore, it was employed as a positive control.
# Human lung carcinoma cell line A549 and CCD-18Co colon fibroblasts were purchased from the American Type Culture Collection (ATCC, Rockville, MD, USA). The A549 cells were cultured in a complete RPMI-1640 medium (Sigma-Aldrich, St. Louis, MO, USA) and CCD-18Co cells were cultured in a minimum essential medium (MEM) (PAN-Biotech GmbH, Aidenbach, Germany) at 37 °C, 95% humidity and 5% CO2. The media were supplemented with 10% fetal bovine serum (FBS, Biosera, Nuaille, France) and antibiotics (1% Antibiotic-Antimycotic 100 × and 50 × 10^−3 g L^−1 gentamicin, Biosera). Prior to the selected treatments, cells were seeded on 6- and/or 96-well plates (TPP, Trasadingen, Switzerland) and left to settle for 24 h. The acridine compounds solutions (at concentrations ranging from 5–75 µM) were then added to cells for 24 or 48 h, and analysis was subsequently performed.
# MTT assays were performed in order to evaluate changes in the metabolic activity of cells that had occurred as a consequence of treatment with the acridine compounds. A549 cells (15 × 10^3 cells/cm^2) and CCD-18Co (15.625 × 10^3 cells/cm^2) were seeded in 96-well microplates. The A549 cells were treated for 24 and 48 h, and the CCD-18Co cells were treated for 48 h with different concentrations (5, 25, 50 and 75 µM) of the derivatives. After the treatment, the MTT (3-(4,5-dimethylthiazol-2-yl)-2,5-diphenyltertrazolium bromide) solution in PBS (5 mg mL^−1) was added to each well. The reaction was stopped after 4 h incubation, and the formazan was dissolved by the addition of SDS at a final concentration of 3.3%. The absorbance of formazan (λ = 584 nm) was measured using a BMG FLUOstar Optima spectrometer (BMG Labtech GmbH, Offenburg, Germany). The results were evaluated as percentages of the absorbance of the untreated control. Results are presented as the average percentage of cells from three independent experiments. IC50 values for the derivatives were extrapolated from a sigmoidal fit (dose-response curve) to the metabolic activity data using OriginPro 8.5.0 SR1 (OriginLab Corp., Northampton, MA, USA).
# [3] = biological target: hTopo IIα (Homo sapiens, UniProt P11388); test: Topo IIα kDNA decatenation assay; assay type: biochemical; settings: 25, 50 and 100 μM
# Description: The Topo IIα enzyme catalysed the decatenation of catenated kDNA to closed circular decatenated kDNA. In one specific case, linear (L) and nicked-opened (NC) forms of DNA could by observed. […] The m-Amsacrine (AMSA) (lane 2) was the observed band for catenated DNA.
# as §1
# hTopo IIα, sequence (P11388 whole entry): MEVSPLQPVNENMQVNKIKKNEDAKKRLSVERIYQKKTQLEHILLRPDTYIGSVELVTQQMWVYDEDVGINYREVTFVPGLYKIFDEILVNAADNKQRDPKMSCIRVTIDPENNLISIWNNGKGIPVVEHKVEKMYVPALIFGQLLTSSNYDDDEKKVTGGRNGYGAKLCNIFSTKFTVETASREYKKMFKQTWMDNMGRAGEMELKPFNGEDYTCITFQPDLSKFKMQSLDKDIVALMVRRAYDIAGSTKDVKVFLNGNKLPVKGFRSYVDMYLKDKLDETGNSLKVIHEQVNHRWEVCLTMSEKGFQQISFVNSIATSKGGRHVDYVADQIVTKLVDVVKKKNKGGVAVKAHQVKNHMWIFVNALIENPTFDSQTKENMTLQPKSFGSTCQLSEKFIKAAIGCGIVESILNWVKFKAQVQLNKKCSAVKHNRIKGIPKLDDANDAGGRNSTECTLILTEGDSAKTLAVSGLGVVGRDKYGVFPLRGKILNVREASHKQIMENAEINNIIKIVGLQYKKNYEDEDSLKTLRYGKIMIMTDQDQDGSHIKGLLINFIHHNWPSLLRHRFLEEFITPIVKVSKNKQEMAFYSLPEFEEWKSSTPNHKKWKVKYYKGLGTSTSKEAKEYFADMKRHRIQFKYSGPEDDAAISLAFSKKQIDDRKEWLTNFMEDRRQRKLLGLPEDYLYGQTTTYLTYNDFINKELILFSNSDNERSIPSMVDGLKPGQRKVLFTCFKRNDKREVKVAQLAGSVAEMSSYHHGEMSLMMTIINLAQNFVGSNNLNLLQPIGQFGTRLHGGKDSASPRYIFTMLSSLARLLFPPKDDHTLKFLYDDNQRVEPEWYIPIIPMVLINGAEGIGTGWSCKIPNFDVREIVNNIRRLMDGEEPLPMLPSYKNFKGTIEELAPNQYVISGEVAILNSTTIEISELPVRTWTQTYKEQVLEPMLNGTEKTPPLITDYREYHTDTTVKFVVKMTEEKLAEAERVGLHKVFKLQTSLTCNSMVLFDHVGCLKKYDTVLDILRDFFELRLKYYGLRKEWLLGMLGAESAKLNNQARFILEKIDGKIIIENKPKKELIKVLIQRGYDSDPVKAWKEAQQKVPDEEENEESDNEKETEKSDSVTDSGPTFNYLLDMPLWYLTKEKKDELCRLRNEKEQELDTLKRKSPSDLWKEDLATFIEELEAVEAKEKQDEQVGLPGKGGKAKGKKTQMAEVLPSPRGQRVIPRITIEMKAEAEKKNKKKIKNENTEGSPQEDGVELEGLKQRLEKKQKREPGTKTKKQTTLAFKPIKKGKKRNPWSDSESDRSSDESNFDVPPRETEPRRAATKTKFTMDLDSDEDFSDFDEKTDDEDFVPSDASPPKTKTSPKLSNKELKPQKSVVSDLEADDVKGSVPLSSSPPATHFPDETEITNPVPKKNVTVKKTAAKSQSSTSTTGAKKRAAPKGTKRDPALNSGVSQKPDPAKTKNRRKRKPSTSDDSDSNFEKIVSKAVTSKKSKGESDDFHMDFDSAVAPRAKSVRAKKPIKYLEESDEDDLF
melting point,inhibition of decatenation activity of Topo IIα [3],SMILES,inhibition of relaxation activity of Topo I [1],times less activity than doxorubicin in CCD18-Co ([2]; from IC50),pIC50 [2]
235 to 236 °C,No obvious inhibitory effects,"O=C(N/N=C/c1cccc2cc3ccccc3nc12)c1ccccc1 [3a, N′-[(E)-(Acridin-4-yl)methylidene]benzohydrazide]",did not have the potential to inhibit,> 15,< 4.12
229 to 230 °C,No obvious inhibitory effects,"O=C(N/N=C/c1cccc2cc3ccccc3nc12)c1ccc(F)cc1 [3b, N′-[(E)-Acridin-4-ylmethylidene]-4-fluorobenzohydrazide]",did not have the potential to inhibit,,5.10
266 to 267 °C,partial inhibition,"O=C(N/N=C/c1cccc2cc3ccccc3nc12)c1ccc(Cl)cc1 [3c, N′-[(E)-Acridin-4-ylmethylidene]-4-chlorobenzohydrazide]",might inhibit the relaxation activity of Topo I,,4.80
269 to 270 °C,partial inhibition,"O=C(N/N=C/c1cccc2cc3ccccc3nc12)c1ccc(Br)cc1 [3d, N′-[(E)-Acridin-4-ylmethylidene]-4-bromobenzohydrazide]",might inhibit the relaxation activity of Topo I,,4.77
